# Results reported in ChEMBL document CHEMBL2073776, “Interaction of structurally diverse pesticides with the human MDR1 gene product P-glycoprotein” (Toxicol Appl Pharmacol, 1996).
# Assays:
# Format in all cases: functional, cell-based
# [1] = target: T1, MDR1 (ABCB1, ATP-dependent translocase) (Homo sapiens, UniProt P08183); test: TP_TRANSPORTER: inhibition of Doxorubicin efflux (Doxorubicin: 50 uM, Heptachlor epoxide: 250 uM) in MDR1-expressing B16/F10 cells; settings: mouse, probe Doxorubicin
# [2] = target: T2, ATP-dependent translocase ABCB1 (Homo sapiens, UniProt P08183); test: TP_TRANSPORTER: inhibition of Doxorubicin efflux (Doxorubicin: 50 uM, Phenamiphos: 250 uM) in MDR1-expressing B16/F10 cells; settings: mouse, b16-f10, 250 µM
# [3] = target: T2, ATP-dependent translocase ABCB1; test: TP_TRANSPORTER: inhibition of Doxorubicin efflux (Doxorubicin: 50 uM, Chlorpyrifos: 250 uM) in MDR1-expressing B16/F10 cells; settings: mouse, b16-f10, 250 µM
# [4] = target: T1, MDR1 (ABCB1, ATP-dependent translocase); test: TP_TRANSPORTER: inhibition of Doxorubicin efflux (Doxorubicin: 50 uM, Parathion: 250 uM) in MDR1-expressing B16/F10 cells; settings: mouse, probe Doxorubicin
# [5] = target: T1, MDR1 (ABCB1, ATP-dependent translocase); test: TP_TRANSPORTER: inhibition of Doxorubicin efflux (Doxorubicin: 50 uM, Hydramethylnon: 8 uM) in MDR1-expressing B16/F10 cells; settings: mouse, probe Doxorubicin
# [6] = target: T1, MDR1 (ABCB1, ATP-dependent translocase); test: TP_TRANSPORTER: inhibition of Doxorubicin efflux (Doxorubicin: 50 uM, Dicapthon: 250 uM) in MDR1-expressing B16/F10 cells; settings: mouse, probe Doxorubicin
# [7] = target: T1, MDR1 (ABCB1, ATP-dependent translocase); test: TP_TRANSPORTER: inhibition of Doxorubicin efflux (Doxorubicin: 50 uM, Heptachlor: 250 uM) in MDR1-expressing B16/F10 cells; settings: mouse, probe Doxorubicin
# [8] = target: T2, ATP-dependent translocase ABCB1; test: TP_TRANSPORTER: inhibition of Doxorubicin efflux (Doxorubicin: 50 uM, Clotrimazole: 100 uM) in MDR1-expressing B16/F10 cells; settings: mouse, b16-f10, 100 µM
# [9] = target: T2, ATP-dependent translocase ABCB1; test: TP_TRANSPORTER: inhibition of Doxorubicin efflux (Doxorubicin: 50 uM, Fluvalinate: 250 uM) in MDR1-expressing B16/F10 cells; settings: mouse, b16-f10, 250 µM
# [10] = target: T2, ATP-dependent translocase ABCB1; test: TP_TRANSPORTER: inhibition of Doxorubicin efflux (Doxorubicin: 50 uM, Chlorthiophos: 250 uM) in MDR1-expressing B16/F10 cells; settings: mouse, b16-f10, 250 µM
# [11] = target: T1, MDR1 (ABCB1, ATP-dependent translocase); test: TP_TRANSPORTER: inhibition of Doxorubicin efflux (Doxorubicin: 50 uM, Chlordecone: 250 uM) in MDR1-expressing B16/F10 cells; settings: mouse, probe Doxorubicin
# [12] = target: T1, MDR1 (ABCB1, ATP-dependent translocase); test: TP_TRANSPORTER: inhibition of Doxorubicin efflux (Doxorubicin: 50 uM, Tetrachlorohydroquinone: 250 uM) in MDR1-expressing B16/F10 cells; settings: mouse, probe Doxorubicin
# [13] = target: T2, ATP-dependent translocase ABCB1; test: TP_TRANSPORTER: efflux in MDR1-expressing B16/F10 cells; settings: mouse
# [14] = target: T1, MDR1 (ABCB1, ATP-dependent translocase); test: TP_TRANSPORTER: inhibition of Doxorubicin efflux (Doxorubicin: 50 uM, Endosulfan: 100 uM) in MDR1-expressing B16/F10 cells; settings: mouse, probe Doxorubicin
# [15] = target: T2, ATP-dependent translocase ABCB1; test: TP_TRANSPORTER: inhibition of Doxorubicin efflux (Doxorubicin: 50 uM, […]: 250 uM) in MDR1-expressing B16/F10 cells; settings: mouse, b16-f10, 250 µM
# T1 sequence (P08183 whole entry): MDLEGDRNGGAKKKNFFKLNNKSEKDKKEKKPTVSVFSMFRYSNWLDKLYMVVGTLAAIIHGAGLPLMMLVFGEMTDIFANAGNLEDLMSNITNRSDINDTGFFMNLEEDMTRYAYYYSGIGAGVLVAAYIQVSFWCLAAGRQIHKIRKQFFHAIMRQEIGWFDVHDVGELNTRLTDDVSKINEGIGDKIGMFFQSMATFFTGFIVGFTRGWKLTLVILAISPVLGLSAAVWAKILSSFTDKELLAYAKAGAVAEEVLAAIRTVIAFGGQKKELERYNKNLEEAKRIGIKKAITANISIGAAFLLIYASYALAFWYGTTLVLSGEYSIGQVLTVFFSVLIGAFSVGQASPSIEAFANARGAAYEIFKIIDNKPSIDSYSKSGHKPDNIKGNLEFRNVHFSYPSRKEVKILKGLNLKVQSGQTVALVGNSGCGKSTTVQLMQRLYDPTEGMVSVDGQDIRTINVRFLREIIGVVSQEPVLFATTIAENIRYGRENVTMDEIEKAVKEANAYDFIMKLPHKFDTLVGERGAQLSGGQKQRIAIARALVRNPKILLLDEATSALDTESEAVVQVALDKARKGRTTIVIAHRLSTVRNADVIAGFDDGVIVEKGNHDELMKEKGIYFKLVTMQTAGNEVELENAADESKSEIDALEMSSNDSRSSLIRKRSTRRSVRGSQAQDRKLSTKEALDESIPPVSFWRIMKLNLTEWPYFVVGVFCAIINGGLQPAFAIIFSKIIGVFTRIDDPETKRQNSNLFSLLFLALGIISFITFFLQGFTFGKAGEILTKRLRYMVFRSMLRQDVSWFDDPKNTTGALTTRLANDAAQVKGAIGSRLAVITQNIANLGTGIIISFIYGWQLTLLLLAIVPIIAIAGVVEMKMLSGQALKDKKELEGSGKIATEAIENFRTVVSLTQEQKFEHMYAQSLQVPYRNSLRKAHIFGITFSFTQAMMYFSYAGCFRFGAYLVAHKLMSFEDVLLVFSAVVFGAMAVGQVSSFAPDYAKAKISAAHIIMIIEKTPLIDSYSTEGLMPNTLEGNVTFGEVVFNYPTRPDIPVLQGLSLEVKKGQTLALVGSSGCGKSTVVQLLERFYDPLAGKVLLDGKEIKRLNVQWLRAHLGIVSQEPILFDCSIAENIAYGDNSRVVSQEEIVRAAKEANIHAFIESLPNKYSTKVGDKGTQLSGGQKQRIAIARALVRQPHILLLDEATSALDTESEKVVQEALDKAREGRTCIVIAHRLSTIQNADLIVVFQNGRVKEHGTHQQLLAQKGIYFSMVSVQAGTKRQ
# T2 sequence (P08183 whole entry): as above
smiles,measurement,setting,value
ClC1=C(Cl)C2(Cl)C3C4OC4C(Cl)C3C1(Cl)C2(Cl)Cl (stereo not given) [HEPTACHLOR EPOXIDE],inhibition at 250 µM,[1],> 80%
CCOP(=O)(NC(C)C)Oc1ccc(SC)c(C)c1 (stereo not given) [PHENAMIPHOS],Inhibition,[2],inhibitor [51-80 % inhibition]
CCOP(=S)(OCC)Oc1nc(Cl)c(Cl)cc1Cl [CHLORPYRIFOS],Inhibition,[3],inhibitor [51-80 % inhibition]
CCOP(=S)(OCC)Oc1ccc([N+](=O)[O-])cc1 [PARATHION],inhibition at 250 µM,[4],> 80%
CC1(C)CNC(=NN=C(/C=C/c2ccc(C(F)(F)F)cc2)/C=C/c2ccc(C(F)(F)F)cc2)NC1 [HYDRAMETHYLNON],inhibition at 8 µM,[5],> 80%
COP(=S)(OC)Oc1ccc([N+](=O)[O-])cc1Cl [DICAPTHON],inhibition at 250 µM,[6],> 80%
ClC1=C(Cl)C2(Cl)C3C(Cl)C=CC3C1(Cl)C2(Cl)Cl (stereo not given) [HEPTACHLOR],inhibition at 250 µM,[7],> 80%
Clc1ccccc1C(c1ccccc1)(c1ccccc1)n1ccnc1 [CLOTRIMAZOLE],Inhibition,[8],inhibitor [51-80 % inhibition]
CC(C)[C@H](Nc1ccc(C(F)(F)F)cc1Cl)C(=O)OC(C#N)c1cccc(Oc2ccccc2)c1 (stereo not given in full) [FLUVALINATE],Inhibition,[9],inhibitor [31-50 % inhibition]
CCOP(=S)(OCC)Oc1cc(Cl)c(SC)cc1Cl [CHLORTHIOPHOS],Inhibition,[10],inhibitor [51-80 % inhibition]
O=C1C2(Cl)C3(Cl)C4(Cl)C(Cl)(Cl)C5(Cl)C3(Cl)C1(Cl)C5(Cl)C24Cl (stereo not given) [KEPONE],inhibition at 250 µM,[11],> 80%
Oc1c(Cl)c(Cl)c(O)c(Cl)c1Cl [TETRACHLOROHYDROQUINONE],inhibition at 250 µM,[12],> 80%
O=S1OCC2C(CO1)C1(Cl)C(Cl)=C(Cl)C2(Cl)C1(Cl)Cl (stereo not given) [ENDOSULFAN],Activity,[13],substrate [+]
same,inhibition at 100 µM,[14],> 80%
COP(=S)(Oc1cc(Cl)c(Br)cc1Cl)c1ccccc1 (stereo not given) [LEPTOPHOS],Inhibition,[15],inhibitor [51-80 % inhibition]
